This is an account of results in ChEMBL document CHEMBL1150028, “-((Tetronoyl)oxy)- and -((tetramoyl)oxy)methyl ketone inhibitors of the interleukin-1 converting enzyme (ICE)” (Bioorg Med Chem Lett, 1997).

One data set deals with T1, Caspase-1 (Homo sapiens) (UniProt P29466).
T1 sequence (whole entry): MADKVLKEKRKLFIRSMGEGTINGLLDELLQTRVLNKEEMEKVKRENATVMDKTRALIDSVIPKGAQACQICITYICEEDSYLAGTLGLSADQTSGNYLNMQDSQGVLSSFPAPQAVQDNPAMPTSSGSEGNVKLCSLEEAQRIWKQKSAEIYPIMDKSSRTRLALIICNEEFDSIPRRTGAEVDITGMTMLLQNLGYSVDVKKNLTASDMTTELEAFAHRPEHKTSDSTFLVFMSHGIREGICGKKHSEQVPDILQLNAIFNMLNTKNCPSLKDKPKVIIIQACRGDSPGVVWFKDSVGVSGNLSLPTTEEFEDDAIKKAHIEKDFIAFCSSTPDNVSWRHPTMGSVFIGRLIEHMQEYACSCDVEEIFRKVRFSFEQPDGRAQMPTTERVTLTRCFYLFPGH
The data set is described as follows: Inhibitory activity against IL-1 beta converting enzyme was determined.

Data set [1] in a line: Stability of compound was determined by its half life period. The format is physicochemical.

In turn, `CC(C)[C@H](NC(=O)OCc1ccccc1)C(=O)N[C@@H](CC(=O)O)C(=O)COC1=C(c2ccccc2)C(=O)OC1` gave a K obs / 1 on Caspase-1 (Homo sapiens) of 27900 M⁻¹ s⁻¹.

As for `O=C(O)C[C@H](NC(=O)OCc1ccccc1)C(=O)COC1=C(Cc2ccccc2)C(=O)OC1`, the K obs / 1 at Caspase-1 (Homo sapiens) was 2850 M⁻¹ s⁻¹. The same compound gave a half-life in data set [1] of 9.8 h.

On to `CC(C)[C@H](NC(=O)OCc1ccccc1)C(=O)N[C@@H](CC(=O)O)C(=O)COC1=C(c2ccccc2)C(=O)NC1`, for which the K obs / 1 on Caspase-1 (Homo sapiens) was 8500 M⁻¹ s⁻¹. In addition, the half-life in data set [1] was 95 h.

With `CC(C)[C@H](NC(=O)OCc1ccccc1)C(=O)N[C@@H](CC(=O)O)C(=O)COC(=O)c1c(Cl)cccc1Cl`, at Caspase-1 (Homo sapiens), the K obs / 1 turned out to be 41000 M⁻¹ s⁻¹.

`O=C(O)C[C@H](NC(=O)OCc1ccccc1)C(=O)COC(=O)c1c(Cl)cccc1Cl`: the K obs / 1 on Caspase-1 (Homo sapiens) was 7100 M⁻¹ s⁻¹.

Take `CC(C)[C@H](NC(=O)OCc1ccccc1)C(=O)N[C@@H](CC(=O)O)C(=O)COC1=C(Cc2ccccc2)C(=O)OC1`: the K obs / 1 at Caspase-1 (Homo sapiens) turned out to be 21200 M⁻¹ s⁻¹.

`O=C(O)C[C@H](NC(=O)OCc1ccccc1)C(=O)COC1=CC(=O)OC1` showed a K obs / 1 at Caspase-1 (Homo sapiens) of 188 M⁻¹ s⁻¹.

`COc1ccc(C2=C(OCC(=O)[C@H](CC(=O)O)NC(=O)OCc3ccccc3)COC2=O)cc1`: the K obs / 1 at Caspase-1 (Homo sapiens) was determined as 4000 M⁻¹ s⁻¹.

Regarding `O=C(O)C[C@H](NC(=O)OCc1ccccc1)C(=O)COC1=C(c2ccc(Cl)c(Cl)c2)C(=O)OC1`, the K obs / 1 at Caspase-1 (Homo sapiens) is 640 M⁻¹ s⁻¹.

The compound `CC(C)[C@H](NC(=O)OCc1ccccc1)C(=O)N[C@@H](C)C(=O)N[C@@H](CC(=O)O)C(=O)COC1=C(Cc2ccccc2)C(=O)OC1` showed a half-life in data set [1] of 20 h.

`Cc1ccc(C2=C(OCC(=O)[C@H](CC(=O)O)NC(=O)OCc3ccccc3)COC2=O)cc1` came in with a K obs / 1 on Caspase-1 (Homo sapiens) of 4500 M⁻¹ s⁻¹.

As to `O=C(O)C[C@H](NC(=O)OCc1ccccc1)C(=O)COC1=C(c2ccccc2)C(=O)OC1`, the K obs / 1 at Caspase-1 (Homo sapiens) came to 5700 M⁻¹ s⁻¹. The compound also showed a half-life in data set [1] of 0.86 h.

`CC1(C)OC(=O)C(c2ccccc2)=C1OCC(=O)[C@H](CC(=O)O)NC(=O)OCc1ccccc1` registered a K obs / 1 on Caspase-1 (Homo sapiens) of 260 M⁻¹ s⁻¹.

Consider `O=C(O)C[C@H](NC(=O)OCc1ccccc1)C(=O)COC1=C(c2ccc(Cl)cc2)C(=O)OC1`, for which the K obs / 1 at Caspase-1 (Homo sapiens) was 4100 M⁻¹ s⁻¹.

On to `O=C(O)C[C@H](NC(=O)OCc1ccccc1)C(=O)COC1=C(Cl)C(=O)OC1`, for which, at Caspase-1 (Homo sapiens), the K obs / 1 is under 25 M⁻¹ s⁻¹.

On Caspase-1 (Homo sapiens), `O=C(O)C[C@H](NC(=O)OCc1ccccc1)C(=O)COC1=C(c2ccccc2)C(=O)CC1` had a K obs / 1 of 3070 M⁻¹ s⁻¹. In data set [1], the half-life is 3.9 h.
